A value given as a limit tells only on which side of the number the result lay.

The record followed here is patent US8492159B2, “Methods and compositions for treating conditions” (priority 2004, dated 2013).

In test [1] the test system is Pseudomonas syringae pv tomato, DC3000. The test is described as follows: Systemic resistance of plants to a virulent bacterial pathogen. The format is in vivo, Arabidopsis ecotype Columbia (Col-0). As to conditions: 20 μl salicylic acid at 1 mM and 20 μl SEQ ID NO: 15 applied together to the leaves. As for the experimental part: Seeds of Arabidopsis ecotype Columbia (Col-0) were planted in potting soil. Plants were cultivated in a growth chamber with 10-h d (200 μmol m^−2 s^−1 at 22° C.) and 14-h night (18° C.) cycles and 80% RH. Once a week plants were supplied with water and modified one-half strength Hoagland nutrient solution: 2 mM KNO 5 mM Ca(NO3)2 and trace elements, pH 7.
A virulent plant pathogen, Pst Pseudomonas syringae pv tomato, DC3000 was grown at 28° C. on King's medium B containing 40 mg/L tetracycline. Plants were inoculated with 1×10^7 cfu/ml of the pathogen in 0.01% Silwet L77 (v/v) (a surfactant) and distilled water 5 weeks after sowing. The bacterial suspension or a control solution (0.01% Silwet L77 in water) was then sprayed on the plant once.
Disease symptoms in Arabidopsis are water-soaked, spreading lesions, sometimes surrounded by chlorotic margin that eventually lead to yield loss and plant death.
To test the efficacy of SEQ ID NO: 15, some healthy and some disease plants were sprayed with salicylic acid in 0.01%. Silwet L77; some healthy and some disease plants were sprayed with SEQ ID NO: 15 in 0.01%. Silwet L77, and some healthy and some disease plants were sprayed with salicylic acid in combination with SEQ ID NO: 15 in 0.01%. Silwet L77. A control group of some healthy and some disease plants were sprayed with water in 0.01%. Silwet L77. […]

Test [2] has as its system Sauromatum guttatum appendix. The test is described as follows: Modulation of heat generated by aspirin (ASA) in appendix sections. Conditions: appendix sections in aqueous ASA with or without peptide. As for the experimental part: (§1) In one example, using Sauromatum guttatum as the experimental module, on the day of inflorescence-opening, the Sauromatum appendix (a 20-40 cm-long, slender organ) becomes warm, reaching a 32° C. temperature (Skubatz et al., 1991, Plant Physiol. 95:1084-1088). The heat generated by the appendix is generated by the mitochondria. This mitochondrial activity can be triggered by the addition of phenolic compounds, including but not limited to, salicylic acid, aspirin, and 2,6-dihydroxybenzoic acid. Test agents can be applied to the plant and the plant's temperature may be monitored in vivo.
One day before heat-production, sections of the appendix were placed in different aqueous solutions containing ASA with or without an opioid peptide. [Leu]-Enkephalin, SEQ ID NO: 15; Human β-Endorphin; SEQ ID NO: 19; Dynorphin A, SEQ ID NO: 21; Endomorphin 2, SEQ ID NO: 24; Neuropeptide AF, SEQ ID NO: 44; β-human-Casomorphin, SEQ ID NO: 47; Alzheimer's peptide, SEQ ID NO: 48. […] Temperature was recorded with thermocouples attached to the section every 5 min.

The subject of test [3] is Sauromatum guttatum appendix. The test is described as follows: Modulation of heat generated by salicylic acid (SA) in appendix sections. As to conditions: appendix sections in aqueous SA with or without peptide. As for the experimental part:
as §1
FIG. 5 illustrates modulation of heat generated by salicylic acid (SA) in the presence of human opioid peptides (β-Endorphin, SEQ ID NO: 19 and Nueuropeptide AF, SEQ ID NO: 44) and, the Alzheimer's peptide, Aβ 1-42, SEQ ID NO: 49, and, a plant virulent bacterial pathogen (Pst DC3000). One day before heat-production, sections of the appendix were placed in different aqueous solutions containing salicylic acid (SA) with or without a peptide or with the bacterial plant pathogen, Pseudomonas syringae pv. Tomato, DC3000. Sections from the appendix were placed in distilled water that was not generated any heat is the control (water). Temperature was recorded with thermocouples attached to the sections every 5 min.

Test [4] relates to post-operative pain in rats. Description: Von Frey testing for mechanical allodynia, post-operative pain (Brennan model), first study. The format is in vivo, rat. An excerpt: A total of forty (40) male Sprague Dawley rats (Harlan Sprague Dawley Inc., Indianapolis, Ind., USA) were used in the study. The rats are specific pathogen free and approximately 250 grams upon arrival. The rats were housed in the vivarium in clear polycarbonate plastic cages (48×27×20 cm); 2 rats per cage until a few days prior to surgery at which point they were singularly housed for the remainder of the study procedures. The bedding material is irradiated corn-cob bedding (Bed-O-Cob, The Andersons, Maumee, Ohio, USA) that was changed weekly. The rats were acclimated for two weeks prior to the commencement of the experimental procedures. The room in which the rats were housed throughout the study was supplied with HEPA filtered air at the rate of 10-15 air changes per hour. The temperature was maintained at 18-26° C. with a relative humidity of 30-70%. Illumination is approximately 300 lumens/m^2 at 1 m above floor level on a 12-hour light/dark cycle. […]
On days 1 and 3 post-surgery, the rats underwent Von Frey testing for mechanical allodynia. Tactile sensitivity (i.e. mechanical allodynia) was measured using calibrated filaments touched to the plantar surface of the affected limb. […]
FIG. 1. Data were analyzed using a one-way ANOVA followed by Newman-Keuls' Multiple Comparison. […]

The test system of test [5] is post-operative pain in rats. Description: Hind paw withdrawal threshold (von Frey filaments) after surgery, second study. The class given is in vivo, rat. As for the experimental part: In a second independent study the rat hind paw withdrawal sensitivity was again evaluated after 3 h and 3 day post-surgery when the rats had received SEQ ID NO: 1 at three different concentrations: 1, 15 and 50 mg/kg. The dosing route was subdermal injection adjacent to the wound site. The rats received one dose 3 hours after the surgery and on Day 3 post-surgery, group 3 was dosed again as described in the Table IV. Pain measurements were taken 15-20 min after application of the drug. Baseline pain behavior was measured as follows: Withdrawal responses to mechanical stimulation were determined using von Frey filaments applied from underneath the cage through openings (12×12 mm in the plastic mesh floor to an area adjacent to the intended incision. Each von Frey filament (Target force of 0.008 g to 300 g) was applied once starting with 0.008 g filament and continuing until a withdrawal response occurred or 300 g force was reached. The median force producing a response, determined from three tests given over a 10-min period was considered the withdrawal threshold.
In the saline treated animals, the control, 3-hour post-surgery were 25.1, 4.4 and 12.7 g, indicating significant hyperalgesic response immediately after surgery which subsided by Day-3. […] The withdrawal response in the 50 mg/kg SEQ ID NO: 1 administered on Day-1 was 9.9 g compared to the 4.4 g for the saline group at the same time-point, indicating a 125% effect. The data expressed as mean±SE, were analyzed using ANOVA followed by Tukey-HSD Multiple Comparison Test. Statistical significance was p<0.05.
On Day-3, when these animals were administered with […] of SEQ ID NO: 1 subdermally, the withdrawal response was at 21.3 g, compared to the withdrawal response of saline group at 12.7 g, constituting an increase of 68%. The data expressed as mean±SE, were analyzed using ANOVA followed by Tukey-HSD Multiple Comparison Test. Statistical significance was p<0.05.

Test [6] deals with chronic pain. Description: Topical administration to an adult subject with chronic pain, scaled score 1 to 10. The format is in vivo, human. The protocol: An adult subject suffering from chronic pain as a result from of multiple fractures to both tibia and fibula in both legs and severe traumatic soft tissue damage was topically administered a composition containing a polypeptide of SEQ ID NO: 1 at regions experiencing pain (mostly knees and ankles). The pharmaceutical formulation administered comprised of 5 μM of SEQ ID NO: 1 in 0.01% Silwet L-77. Relief was noticed within 15 min. after administration of a single dose of about 5 μg/10 cm2 of SEQ ID NO: 1. […] A scaled score of 1 to 10 was used to evaluate treatment efficacy where a score of 10 represented a patient with sever pain discomfort and complete inability to walk. A scaled score of 1 represented a patient experiencing no pain and able to freely walk or move the legs. Prior to treatment, the patient scored an 8-9 representing chronic pain and difficulties in walking long distance. After the treatment, the patient scored a 2-3 representing a significant decrease in pain. Treatment efficacy lasted for about 10 days.

The subject of test [7] is Arabidopsis thaliana plants. The test is described as follows: Flowering of treated plants. The class given is in vivo. Conditions: 10 μm in 0.01% Silwet L-77.
In test [8] the test system is Sauromatum guttatum appendix. The test is described as follows: Modulation of heat generated by 2,6-dihydroxybenzoic acid (2,6-DHBA) in appendix sections; peptide alone in a second experiment. The protocol:
as §1
FIG. 6 illustrates modulation of heat generated by 2,6-dihydroxybenzoic acid in the presence of the Alzheimer's peptide, A.β.1-42, SEQ ID NO: 49 and a plant gene derived sequence in the Sauromatum guttatum appendix. One day before heat-production, sections of the appendix were placed in different solutions containing 2,6-dihydroxybenzoic acid (2,6-DHBA) with or without SEQ ID NO: 2 (FLPSEFGVDVDR) and SEQ ID NO: 49. Heat-production was monitored with thermocouples attached to the sections. A section placed in distilled water that was not generated any heat is the control (water). […] The temperature was recorded every 5 min.

Regarding `O=C(O)c1ccccc1O` [salicylic acid], the “systemic resistance to the virulent bacteria” value in test [1] is listed as “enough to trigger systemic resistance”.

As for AGEGLNSQFWSLAAPQRF [SEQ ID NO: 44], the “modulation of heat generated by aspirin (ASA) (FIG. 4)” value (from here on “modulation … (FIG. 4)”) in test [2] is on record as “can modulate thermogenicity in plants”. For the same molecule, the “modulation of heat generated by salicylic acid (SA) (FIG. 5)” value in test [3] is “modulate thermogenicity in plants”.

In the case of “FLPS (Description of Unknown: Arabidopsis thaliana or Homo sapiens) [SEQ ID NO: 1]”, the “pain (mechanical allodynia, paw withdrawal threshold, FIG. 1)” value in test [4] (rats 3 days after surgery, 150 μg topical or subdermal, p<0.05) is on record as “significantly reduce pain”. Moreover, the “appearance of the rats” value in test [4] (rats after surgery, treated) is “relaxed and with less anxiety”. The “increase in the pain threshold” value in test [5] (1 mg/kg on day 1, 3-hour post surgery measurements) is listed as 39%. In addition, in test [5] (50 mg/kg subdermal, Day-1, 3 h after surgery), the “effect compared to the saline group at the same time-point” value amounted to 125%. Moreover, the withdrawal response in test [5] (50 mg/kg subdermal, Day-1, 3 h after surgery, saline group 4.4 g) stood at 9.9 g; in test [5] (Day-3, 15.25 mg/kg subdermally (animals given 1 mg/kg on day 1), saline group 12.7 g) it was 21.3 g. Also, the “increase in response time compared to the saline group” value in test [5] (Day 3, group which did not receive any further dosing) worked out at 31%. In addition, the “increase of withdrawal response compared to saline group” value in test [5] (Day-3, 15.25 mg/kg subdermally) was determined as 68%. Also, the “scaled pain score after the treatment” value in test [6] (scale 1 (no pain) to 10 (severe pain), prior to treatment 8-9) is given as 2-3. The “duration of treatment efficacy” value in test [6] (topical, single dose) was “about 10 days”. For the same molecule, the duration of relief entry in test [6] (topical, single dose of about 5 μg/10 cm2) was “more than a week”. In addition, the “time until relief was noticed” value in test [6] (topical, single dose of about 5 μg/10 cm2, 5 μM in 0.01% Silwet L-77) was no more than 15 min. Moreover, the flowering entry in test [7] is “induces early flowering and abundance of flowers and pods”.

Consider FLPSEFGVDVDR [SEQ ID NO: 2], for which the “modulation of heat generated by 2,6-dihydroxybenzoic acid (FIG. 6)” value in test [8] (appendix sections in 2,6-DHBA with or without peptide) is “modulate thermogenicity in plants”. The “heat generation by the peptide” value in test [8] (second experiment, up to 50 μM, data not shown) is “did not generate heat”.

For the molecule YGGFL [SEQ ID NO: 15], the “modulation … (FIG. 4)” value in test [2] is “can modulate thermogenicity in plants”. Further, in test [1], the “systemic resistance to the virulent bacteria” value was “enough to trigger systemic resistance”.

For YGGFLRRIRPKLKWDNQ [SEQ ID NO: 21], the “modulation … (FIG. 4)” value in test [2] is listed as “can modulate thermogenicity in plants”.

“YGGFMTSEKSQTPLVTLFKNAIIKNAYKKGE [SEQ ID NO: 19]”: the “modulation … (FIG. 4)” value in test [2] is recorded as “can modulate thermogenicity in plants”. In test [3], the “modulation of heat generated by salicylic acid (SA) (FIG. 5)” value is reported as “modulate thermogenicity in plants”.

For the molecule YPFF [SEQ ID NO: 24], the “modulation … (FIG. 4)” value in test [2] was “can modulate thermogenicity in plants”.

YPFVEPIP [SEQ ID NO: 47]: in test [2], the “modulation … (FIG. 4)” value is reported as “can modulate thermogenicity in plants”.
